IC50 and MIC data for 1 compound are collected here from patent publication US10842779B2, “Heterocyclic compounds and their use in preventing or treating bacterial infections” (priority 2015, dated 2020).

The target of one assay is T1, CTX-M-15 (Escherichia coli, UniProt Q9EXV5).
T1 construct: made in house; host or cells: E. coli
In words: β-Lactamase inhibitory activity, nitrocefin hydrolysis. Format: biochemical. The following applies: class (A); 30 min pre-incubation.

The test system of the next assay is E. cloacae. In words: Synergy with ceftazidime: MIC of ceftazidime at fixed concentration of compound. The conditions noted are these: Enterobacter cloacae. Format: cell-based. Here is the method:
Method 2: MIC of Compounds and Synergy with Ceftazidime Against Bacterial Isolates (Table 2 and 3)
Compounds of the present invention were assessed against genotyped bacterial strains alone or in combination with the β-lactam ceftazidime. In the assays, MICs of said compounds, or of ceftazidime at fixed concentrations of said compounds were determined by the broth microdilution method according to the Clinical Laboratory Standards Institute (CLSI—M7-A7). Briefly, compounds alone according to the invention were prepared in DMSO and spotted (2 μL each) on sterile polystyrene plates (Corning, 3788). Compounds and ceftazidime dilutions were prepared in DMSO and spotted (1 μL each) on sterile polystyrene plates (Corning, 3788). Log phase bacterial suspensions were adjusted to a final density of 5×10^5 cfu/mL in cation-adjusted Mueller-Hinton broth (Beckton-Dickinson) and added to each well (98 μL). Microplates were incubated for 16-20 h at 35° C. in ambient air. The MIC of the compounds was defined as the lowest concentration of said compounds that prevented bacterial growth as read by visual inspection. The MIC of ceftazidime at each compound concentration was defined as the lowest concentration of ceftazidime that prevented bacterial growth as read by visual inspection.

Structures are written as SMILES. Like-named read-outs stand apart in the source and are kept apart here.

T1 sequence (Q9EXV5 29-291, species assumed): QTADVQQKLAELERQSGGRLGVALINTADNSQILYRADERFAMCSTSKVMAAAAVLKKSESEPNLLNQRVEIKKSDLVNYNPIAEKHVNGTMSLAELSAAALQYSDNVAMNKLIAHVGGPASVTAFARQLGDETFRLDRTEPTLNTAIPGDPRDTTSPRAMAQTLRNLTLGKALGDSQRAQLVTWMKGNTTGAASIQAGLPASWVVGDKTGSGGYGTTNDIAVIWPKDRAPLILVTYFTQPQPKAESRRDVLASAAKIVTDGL
Description for CTX-M-15: Enzyme activity was monitored by spectrophotometric measurement of nitrocefin (NCF-TOKU-E, N005) hydrolysis at 485 nm, at room temperature and in assay buffer A: 100 mM Phosphate pH7, 2% glycerol and 0.1 mg/mL Bovine serum albumin (Sigma, B4287). Enzymes were cloned in E. coli expression vector, expressed and purified in house using classical procedures. To a transparent polystyrene plate (Corning, 3628) were added in each well 5 μL DMSO or inhibitor dilutions in DMSO and 80 μL enzyme in buffer A. Plates were immediately read at 485 nm in a microplate spectrophotometer (BioTek, PowerWave HT) to enable background subtraction. After 30 min of pre-incubation at room temperature, 15 μL of NCF (200 μM final) were finally added in each well. Final enzyme concentrations were 0.1 nM (TEM-1), 0.075 nM (SHV-1), 0.4 nM (CTX-M-15), 1 nM (KPC-2), 0.2 nM (P99 AmpC), 0.2 nM (CMY-37), 0.4 nM (AmpC P. aeruginosa), 0.2 nM (OXA-1), 1.2 nM (OXA-11), 0.4 nM (OXA-15) and 0.3 nM (OXA-48). After 20 min incubation at room temperature, plates were once again read at 485 nm. Enzyme activity was obtained by subtracting the final signal by the background, and was converted to enzyme inhibition using non inhibited wells. IC50 curves were fitted to a classical Langmuir equilibrium model with Hill slope using XLFIT (IDBS).

One may read the IC50 as the concentration that inhibits the measured activity by half. A high value points to weaker potency in that assay. For the compound `O=C(O)C(F)(F)F.O=C1N2C[C@H](c3scnc3[C@H]2c2ncc[nH]2)N1OS(=O)(=O)[O-].[Na+]` (relative stereo) [Example 1, Sodium and 2,2,2-trifluoroacetate [trans-7-(1H-imidazol-3-ium-2-yl)-9-oxo-3-thia-5,8,10-triaza-tricyclo[6.2.1.0^2,6]undeca-2(6),4-dien-10-yl]sulfate], the IC50 against CTX-M-15 is 2.7 nM. Besides, the MIC in the assay with E. cloacae (ECL 2185D, beta-lactamases OXA-163, read-out: MIC of CAZ + compound (4 μg/mL)) is 1 µg/mL; with E. cloacae (ECL 190310, beta-lactamases AmpC, read-out: MIC of CAZ + compound (4 μg/mL)), less than 0.25 µg/mL; in the assay on E. cloacae (ECL 200138, beta-lactamases AmpC, read-out: MIC of CAZ + compound (4 μg/mL)), 8 µg/mL; in the assay on E. cloacae (ECL 260033, beta-lactamases AmpC, read-out: MIC of CAZ + compound (4 μg/mL)), 4 µg/mL; in the assay with E. cloacae (ECL 260323, beta-lactamases AmpC, read-out: MIC of CAZ + compound (4 μg/mL)), less than 0.25 µg/mL; with E. cloacae (ECL HAN, beta-lactamases OXA-35, read-out: MIC of CAZ + compound (4 μg/mL)), 2 µg/mL. Besides, the MIC in the assay with E. cloacae (ECL NEM146383, beta-lactamases AmpC, read-out: MIC of CAZ + compound (4 μg/mL)) is less than 0.25 µg/mL; with E. cloacae (ECL P99, beta-lactamases AmpC, read-out: MIC of CAZ + compound (4 μg/mL)), less than 0.25 µg/mL; in the assay on E. cloacae (ECL UFR12, beta-lactamases CTX-M-9 OXA-48, read-out: MIC of CAZ + compound (4 μg/mL)) it was less than 0.25 µg/mL; in the assay on E. cloacae (ECL UFR38, beta-lactamases CTX-M-15 NDM-1, read-out: MIC of CAZ + compound (4 μg/mL)), less than 0.25 µg/mL; with E. cloacae (ECL UFR51, beta-lactamases SHV-12 IMP-8, read-out: MIC of CAZ + compound (4 μg/mL)), less than 0.25 µg/mL; in the assay with E. cloacae (read-out: MIC of CAZ + compound (4 μg/mL), ECL UFR84, beta-lactamases TEM-1 AmpC OXA-1), no more than 0.25 µg/mL.
